From article PMC9106035, “Synthesis, X-ray Structure and Biological Studies of New Self-Assembled Cu(II) Complexes Derived from s-Triazine Schiff Base Ligand” (Molecules, 2022)

Assays:
[1] = DPPH radical scavenging assay; assay type: biochemical; settings: for IC50 (DPPH scavenging): antioxidant activity
Procedure: The studied Cu(II) complexes and the free ligands were assessed for their antioxidant activity levels using an α,α-diphenyl-β-picrylhydrazyl (DPPH) scavenging assay, and the results are given in Table 7. […] The results indicated better antioxidant activity for DMAT than for DMOHT, indicating the effect of the substituent at the phenyl moiety on the antioxidant activity level of the free ligand. […] On the other hand, the Cu(II) complexes have improved levels of antioxidant activity compared to the free ligands.
Method S3 DPPH Radical Scavenging Activity:
Freshly prepared (0.004 %w/v) methanol solution of 2,2-diphenyl-1-pi crylhydrazyl (DPPH) radical was prepared and stored at 10 °C in dark place. A methanolic solution of the test compound was prepared using the same procedure. A 40 uL aliquot of the methanol solution was added to 3mL of DPPH solution. Absorbance measurements were recorded immediately with a UV-visible spectrophotometer (Milton Roy, Spectronic 1201). The decrease in absorbance at 515 nm was determined continuously, with data being recorded at 1 min intervals until the absorbance stabilized (16 min). The absorbance of the DPPH radical without antioxidant (control) and the reference compound ascorbic acid were also measured.
All the determinations were performed in three replicates and averaged. The percentage inhibition (PI) of the DPPH radical was calculated according to the […]
PI = [{(AC- AT)/ AC} x 100] (1)
Where AC = Absorbance of the control at t = 0 min and AT = absorbance of the sample+DPPH at t = 16 min. The 50% inhibitory concentration (IC50), the concentration required t o inhibit DPPH radical by 50%, was estimated from graphic plots of the dose respons e curve.

[2] = test system: lung carcinoma A-549 cell line; assay: Anticancer activity, MTT viability assay; assay type: cell-based; settings: for Inhibitory % / Viability %: A-549; for SI = CC50/IC50: CC50 (MRC-5) / IC50 (A-549)
Procedure: The studied compounds were examined for their anticancer activity against the lung carcinoma A-549 cell line.
(§1) Method S4 Evaluation of Cytotoxic activity
(§2) The cells were propagated in Dulbecco’s modified Eagle’s medium (DMEM) supplemented with 10% heat-inactivated fetal bovine serum, 1 % L-glutamine, HEPES buffer and 50µg/mL Gentamycin. All cells were maintained at 37 °C in a humidified atmosphere with 5% CO2 and were subcultured tw o times a week.
(§3) Cytotoxicity evaluation using viability assay
(§4) For cytotoxicity assay, the cells were seeded in 96-well plate at a cell concentration of 1×10^4 cells per well in 100µl of growth medium. Fresh medium containing different concentrations of the test sample was added after 24 h of seeding. Serial two-fold dilutions of the tested chemical compound were added to confluent cell monolayers dispensed into 96-well, flat-bottomed microtiter plates (Falcon, NJ, USA) using a multichannel pipette. The microtiter plates were incubated at 37 °C in a humidified incubator with 5% CO2 for a period of 24 h. Three wells were used for each concentration of the test sample. Control cells were incubated without test sample and with or without DMSO. The little percentage of DMSO present in the […]
(§5) cells for at 37°C, for 24 h, the viabl e cells yield was determined by the MTT test.
(§6) Briefly, the media was removed from the 96 well plate and replaced with 100 µL of fresh culture DMEM m edium without phenol red then 10 µL of the 12 mM MTT stock solution (5 mg of MTT in 1 mL of PBS) to each well including the untreated controls. The 96 well plates were then incubated at 37°C and 5% CO2 for 4 hours. An 85 µL aliquot of the media was removed from t he wells, and 50 µL of DMSO was added to each well and mixed thoroughly with the pipette and incubated at 37°C for 10 min. Then, the optical density was measured at 590 nm with the microplate reader (SunRise, TECAN, Inc, USA) to determine the number of viable cells and the percentage of viability was calculat ed as [(ODt/ODc)]x100% where ODt i s the mean optical density of wells treated with the tested s ample and ODc is the mean optical density of untreated cells. The relation between surviving cells and drug concentration is plotted to get the survival curve of each tumor cell line after treatment with the specified compound. The 50% inhibitory concentration (IC50), the concentration required to cause t oxic effects in 50% of intact cells, was estimated from graphic plots of the dose response curve for each conc. using Graphpad Prism software (San Diego, […]

[3] = test system: normal human lung fibroblast MRC-5 cells; assay: Cytotoxic activity on normal cells, MTT viability assay; assay type: cell-based; settings: for Inhibitory % / Viability %: MRC-5; for CC50: MRC-5 cells, 24 h, MTT
Procedure: In this regard, the selectivity index (SI) was calculated as the ratio of cytotoxic effect on the normal cell line to the cytotoxic effect on the cancer cell line.
as §1, §2, §3, §4, §5, §6

[4] = sample conc. 120.0 µM, Table S8
[5] = sample conc. 239.9 µM, Table S8
[6] = sample conc. 479.8 µM, Table S8
[7] = sample conc. 959.6 µM, Table S8
[8] = sample conc. 15.0 µM, Table S13
[9] = sample conc. 29.9 µM, Table S13
[10] = sample conc. 60.0 µM, Table S13
[11] = sample conc. 120.0 µM, Table S13
[12] = sample conc. 239.9 µM, Table S13
[13] = sample conc. 479.8 µM, Table S13
[14] = sample conc. 959.6 µM, Table S13
[15] = sample conc. 119.3 µM, Table S9
[16] = sample conc. 238.6 µM, Table S9
[17] = sample conc. 477.1 µM, Table S9
[18] = sample conc. 954.2 µM, Table S9
[19] = sample conc. 14.9 µM, Table S14
[20] = sample conc. 29.8 µM, Table S14
[21] = sample conc. 59.6 µM, Table S14
[22] = sample conc. 119.3 µM, Table S14
[23] = sample conc. 238.6 µM, Table S14
[24] = sample conc. 477.1 µM, Table S14
[25] = sample conc. 954.2 µM, Table S14

SMILES: CC(=NNc1nc(N2CCOCC2)nc(N2CCOCC2)n1)c1ccccc1[O-].CC(=O)[O-].[Cu+2] [Complex 2, [Cu(DMOT)(CH3COO)]]
- DPPH Scavenging % ([1]; Conc. 2.5 μg/mL): 9.39%
- DPPH Scavenging % ([1]; Conc. 5 μg/mL): 17.66%
- DPPH Scavenging % ([1]; Conc. 10 μg/mL): 36.52%
- DPPH Scavenging % ([1]; Conc. 20 μg/mL): 49.08%
- DPPH Scavenging % ([1]; Conc. 40 μg/mL): 67.84%
- DPPH Scavenging % ([1]; Conc. 80 μg/mL): 78.62%
- DPPH Scavenging % ([1]; Conc. 160 μg/mL): 83.14%
- DPPH Scavenging % ([1]; Conc. 320 μg/mL): 88.03%
- DPPH Scavenging % ([1]; Conc. 640 μg/mL): 92.15%
- DPPH Scavenging % ([1]; Conc. 1280 μg/mL): 94.54%
- IC50 (DPPH scavenging) [1]: 20.93 ± 0.91 µg/mL
- Inhibitory % ([2]; sample conc. 1.9 µM, Table S8): 0%
- Viability % ([2]; sample conc. 1.9 µM, Table S8): 100%
- Inhibitory % ([2]; sample conc. 3.8 µM, Table S8): 2.84%
- Viability % ([2]; sample conc. 3.8 µM, Table S8): 97.16%
- Inhibitory % ([2]; sample conc. 7.5 µM, Table S8): 10.59%
- Viability % ([2]; sample conc. 7.5 µM, Table S8): 89.41%
- Inhibitory % ([2]; sample conc. 15.0 µM, Table S8): 21.88%
- Viability % ([2]; sample conc. 15.0 µM, Table S8): 78.12%
- Inhibitory % ([2]; sample conc. 29.9 µM, Table S8): 40.57%
- Viability % ([2]; sample conc. 29.9 µM, Table S8): 59.43%
- Inhibitory % ([2]; sample conc. 60.0 µM, Table S8): 58.63%
- Viability % ([2]; sample conc. 60.0 µM, Table S8): 41.37%
- Inhibitory % [2, 4]: 71.3%
- Viability % [2, 4]: 28.70%
- Inhibitory % [2, 5]: 83.57%
- Viability % [2, 5]: 16.43%
- Inhibitory % [2, 6]: 92.15%
- Viability % [2, 6]: 7.85%
- Inhibitory % [2, 7]: 96.38%
- Viability % [2, 7]: 3.62%
- SI = CC50/IC50 [2]: 0.72
- Inhibitory % ([3]; sample conc. 1.9 µM, Table S13): 0%
- Viability % ([3]; sample conc. 1.9 µM, Table S13): 100%
- Inhibitory % ([3]; sample conc. 3.8 µM, Table S13): 0%
- Viability % ([3]; sample conc. 3.8 µM, Table S13): 100%
- Inhibitory % ([3]; sample conc. 7.5 µM, Table S13): 1.29%
- Viability % ([3]; sample conc. 7.5 µM, Table S13): 98.71%
- Inhibitory % [3, 8]: 7.13%
- Viability % [3, 8]: 92.87%
- Inhibitory % [3, 9]: 13.76%
- Viability % [3, 9]: 86.24%
- Inhibitory % [3, 10]: 32.82%
- Viability % [3, 10]: 67.18%
- Inhibitory % [3, 11]: 57.65%
- Viability % [3, 11]: 42.35%
- Inhibitory % [3, 12]: 72.02%
- Viability % [3, 12]: 27.98%
- Inhibitory % [3, 13]: 84.79%
- Viability % [3, 13]: 15.21%
- Inhibitory % [3, 14]: 94.26%
- Viability % [3, 14]: 5.74%
- CC50 [3]: 101 µM

SMILES: CC(=NNc1nc(N2CCOCC2)nc(N2CCOCC2)n1)c1ccccc1[O-].O=[N+]([O-])[O-].[Cu+2] [Complex 3, [Cu(DMOT)(NO3)]]
- DPPH Scavenging % ([1]; Conc. 2.5 μg/mL): 11.46%
- DPPH Scavenging % ([1]; Conc. 5 μg/mL): 18.73%
- DPPH Scavenging % ([1]; Conc. 10 μg/mL): 32.95%
- DPPH Scavenging % ([1]; Conc. 20 μg/mL): 51.32%
- DPPH Scavenging % ([1]; Conc. 40 μg/mL): 68.9%
- DPPH Scavenging % ([1]; Conc. 80 μg/mL): 81.47%
- DPPH Scavenging % ([1]; Conc. 160 μg/mL): 85.92%
- DPPH Scavenging % ([1]; Conc. 320 μg/mL): 90.81%
- DPPH Scavenging % ([1]; Conc. 640 μg/mL): 94.29%
- DPPH Scavenging % ([1]; Conc. 1280 μg/mL): 95.76%
- IC50 (DPPH scavenging) [1]: 19.31 ± 0.73 µg/mL
- Inhibitory % ([2]; sample conc. 1.9 µM, Table S9): 0%
- Viability % ([2]; sample conc. 1.9 µM, Table S9): 100%
- Inhibitory % ([2]; sample conc. 3.8 µM, Table S9): 1.37%
- Viability % ([2]; sample conc. 3.8 µM, Table S9): 98.63%
- Inhibitory % ([2]; sample conc. 7.4 µM, Table S9): 7.25%
- Viability % ([2]; sample conc. 7.4 µM, Table S9): 92.75%
- Inhibitory % ([2]; sample conc. 14.9 µM, Table S9): 19.54%
- Viability % ([2]; sample conc. 14.9 µM, Table S9): 80.46%
- Inhibitory % ([2]; sample conc. 29.8 µM, Table S9): 32.81%
- Viability % ([2]; sample conc. 29.8 µM, Table S9): 67.19%
- Inhibitory % ([2]; sample conc. 59.6 µM, Table S9): 50.72%
- Viability % ([2]; sample conc. 59.6 µM, Table S9): 49.28%
- Inhibitory % [2, 15]: 63.38%
- Viability % [2, 15]: 36.62%
- Inhibitory % [2, 16]: 76.06%
- Viability % [2, 16]: 23.94%
- Inhibitory % [2, 17]: 88.72%
- Viability % [2, 17]: 11.28%
- Inhibitory % [2, 18]: 95.13%
- Viability % [2, 18]: 4.87%
- IC50 ([2]; A-549 cells, 24 h, MTT): 58.3 µM
- SI = CC50/IC50 [2]: 2.96
- SI = CC50/IC50 ([2]; listed as 3): 2.97
- Inhibitory % ([3]; sample conc. 1.9 µM, Table S14): 0%
- Viability % ([3]; sample conc. 1.9 µM, Table S14): 100%
- Inhibitory % ([3]; sample conc. 3.8 µM, Table S14): 0%
- Viability % ([3]; sample conc. 3.8 µM, Table S14): 100%
- Inhibitory % ([3]; sample conc. 7.4 µM, Table S14): 0%
- Viability % ([3]; sample conc. 7.4 µM, Table S14): 100%
- Inhibitory % [3, 19]: 1.37%
- Viability % [3, 19]: 98.63%
- Inhibitory % [3, 20]: 10.83%
- Viability % [3, 20]: 89.17%
- Inhibitory % [3, 21]: 23.08%
- Viability % [3, 21]: 76.92%
- Inhibitory % [3, 22]: 42.86%
- Viability % [3, 22]: 57.14%
- Inhibitory % [3, 23]: 58.72%
- Viability % [3, 23]: 41.28%
- Inhibitory % [3, 24]: 79.35%
- Viability % [3, 24]: 20.65%
- Inhibitory % [3, 25]: 92.46%
- Viability % [3, 25]: 7.54%
- CC50 [3]: 173 µM
